Test results published in patent US12522596B2, “Compounds as GLP-1R agonists” (Terns Pharmaceuticals, Inc., priority 2021, dated 2026).

Key:
human GLP-1R receptor = biological target: T1, human GLP-1R receptor (Homo sapiens, UniProt P43220); assay: GLP-1R low expression cell assay (cAMP TR-FRET, CHO-K1_hGLP-1Rlow_clone10); assay type: cell-based; settings: CHO-K1_hGLP-1Rlow_clone10 cells
T1 construct: expressed in transfected cells
Method: Stable cell lines expressing high and low GLP-1R surface expression were generated in CHO-K1 cells transfected (Fugene 6) with a puromycin selectable DNA plasmid encoding human GLP-1R receptor (accession number: NM_002062.5) under control of an EF1A promoter. Transfected cells were seeded into 24-well plates (9,000 cells/well) containing complete medium and incubated in a humidified incubator at 37° C. with 5% carbon dioxide. After overnight incubation, medium was replaced with complete medium supplemented with puromycin (6 μg/mL) and refreshed every 2-3 days to select for stably transfected cells. Individual pools of selected cells were expanded prior to analysis for responsiveness to GLP-1 control peptide using a TR-FRET assay to detect cAMP (LANCE Ultra CAMP Assay, Perkin Elmer). Briefly, cells were collected in Versene solution, plated in 384-well plates (1,000 cells/well) and combined with serially diluted GLP-1R control peptide (10 nL) using an acoustic dispenser (ECHO). Plates were incubated for 30 minutes at 25° C. prior to the addition of EU-CAMP tracer (5 μL) and Ulight-anti-cAMP (5 μL) reagents to each well, followed by 15 minutes incubation at 25° C. TR-FRET signal was detected using an En Vision Multimode Plate Reader (excitation=320 nm; emission=615 and 655 nm). Dose-response curves were used to generate EC50 values as a measure of responsiveness to the GLP-1R control peptide. Selected cell lines were monitored for responsiveness over multiple passages to ensure stability. […] Briefly, GLP-1R expression was analyzed by flow cytometry using a fluorescein-labeled Exendin-4 peptide fluorescent probe (FLEX). Cells were harvested in Versene solution and washed 3-times with PBS+0.5% BSA before incubation with FLEX reagent (10 μM) for 2 hours at room temperature. After incubation, cells were washed 3-times in PBS+0.5% BSA before final resuspension in PBS prior to analysis by flow cytometry to measure FLEX mean fluorescence intensity (MFI) as a measure of GLP-1R expression on the cell surface.
For compound testing in the CHO-K1_hGLP-1Rlow_clone10 cell line, cells were seeded in 384-well plates (1,000 cells/well). Test compounds were serially diluted in DMSO (10-point, 3-fold dilution), added to wells using an ECHO dispenser (10 nL/well) and plates were centrifuged for 1 min and agitated for 2 min at room temperature prior to 30-minute incubation at 25° C. After incubation, Eu-CAMP (5 μL) and Ulight-anti-cAMP (5 μL) reagents were added to each well, followed by centrifugation for 1 minute, agitation for 2 minutes at room temperature, and final incubation of the plates at 25° C. for 15 minutes. Plates were read using an EnVision microplate reader (excitation=320 nm; emission=615 and 655 nm). Dose-response curves were generated from duplicate wells based on percent activation calculated relative to a control GLP-1 peptide agonist that was run in parallel. EC50 values were determined by fitting percent activation as a function of compound concentration using the Hill equation (XLfit).
Stable cell lines expressing high and low GLP-1R surface expression were generated in CHO-K1 cells transfected (Fugene 6) with a puromycin selectable DNA plasmid encoding human GLP-1R receptor (accession number: NM_002062.5) under control of an EF1A promoter. Transfected cells were seeded into 24-well plates (9,000 cells/well) containing complete medium and incubated in a humidified incubator at 37° C. with 5% carbon dioxide. After overnight incubation, medium was replaced with complete medium supplemented with puromycin (6 μg/mL) and refreshed every 2-3 days to select for stably transfected cells. Individual pools of selected cells were expanded prior to analysis for responsiveness to GLP-1 control peptide using a TR-FRET assay to detect cAMP (LANCE Ultra CAMP Assay, Perkin Elmer).

[1] = Rat pharmacokinetics, oral dosing; assay type: in vivo, Sprague-Dawley rats; settings: for Cmax / AUC(0-t) / half-life: male, Sprague-Dawley, rat plasma, 3 mg/kg PO (0.6 mg/mL); for PK properties relative to Reference Compound A: dosed orally
Method: Oral dosing: Compounds were formulated at 0.3 mg/mL or 0.6 mg/mL in a solution comprising 5% polyethylene glycol 400 and 95% (12% (w/v) sulfobutyl-β-cyclodextrin in water) (v/v). Formulated compounds were administered to male, 7-11 week old Sprague-Dawley rats by oral gavage at a dose of 3 mg/kg.
Sample collection: Blood collections of about 0.2 mL per time point were performed from jugular vein or other suitable site of each animal, into pre-chilled commercial EDTA-K2 tubes and placed on wet ice until centrifugation. Blood samples were processed for plasma by centrifugation at approximately 4° C., 3,200 g for 10 min. Plasma was collected and transferred into pre-labeled 96 well plate or polypropylene tubes, quick frozen over dry ice and kept at −60° C. or lower until LC-MS/MS analysis.
Data analysis: Plasma concentration versus time data was plotted in graph and analyzed by non-compartmental approaches using the Phoenix WinNonlin 6.3 software program. Related PK parameters were calculated according to dosing route, e.g., CL, Vdss and C0 for intravenous administration, Cmax, Tmax or % F for extravascular administration, and T1/2, AUC(0-t), AUC(0-inf), MRT(0-t), MRT(0-inf) for all routes.

[2] = Metabolic stability in rat hepatocytes; assay type: in vitro ADME; settings: cryopreserved hepatocytes, 1 μM
Method: (§1) Test compounds were incubated in rat and human hepatocytes and stability was assessed from the substrate […] approach. Test compounds were dissolved in dimethyl sulfoxide (DMSO) to create a 10 mM Stock, and then further diluted to create a 1000× Working Stock of 1 mM with DMSO in 96-well plates for test compounds and the positive control (midazolam). Vials containing cryopreserved hepatocytes were removed from the liquid nitrogen tank and immediately immersed in a 37° C. water bath. The vials were shaken gently until the contents had thawed and were then immediately emptied into 48 mL of pre-warmed HT Medium in a 50 mL conical tube. Cells remaining in the vial were resuspended with 1.0 mL of pre-warmed HT Medium and added to the conical tube. The tube was capped and then gently inverted several times to resuspend the hepatocytes. The cell suspension was centrifuged at 50×g at room temperature for 5 minutes and the supernatant discarded. The cell pellet was loosened by gently swirling the centrifuge tube and was re-suspended in 4 mL of warm Dulbecco's Modified Eagle medium (DMEM). Cell density was determined by a cell counter by Nexcelom, and DMEM medium was added to obtain a target density of 1×10^6 cells/mL. The assay was carried out in 96-well microtiter plates. Test Compounds were incubated at 1 μM with 1×10^6 cells/mL hepatocytes in DMEM for 0, 30, 60, 120 and 240 minutes. The incubation was carried out with gentle shaking at 37° C. under a humid atmosphere of 95% air/5% CO2. The volume of the incubation mixture was 37 μL with a final 0.1% DMSO. At each of the time points, the incubation was stopped by adding 150 μL quenching solution (100% acetonitrile, 0.1% formic acid containing bucetin as an internal standard for positive ESI mode). Subsequently, the mixtures were vortexed for 20 min and centrifuged at 4,000 RPM at 10° C. The supernatant (80 μL) was transferred to a clean 96-well plate and analyzed by LC-MS/MS. Midazolam at 1 μM with a final 0.1% DMSO was included as a positive control to verify assay performance. The percent parent remaining, intrinsic and predicted hepatic clearance and t1/2 were calculated. All samples were analyzed by LC-MS/MS using an AB Sciex API 4000 instrument, coupled to a Shimadzu LC-20AD LC Pump system. Separation was achieved using a Waters Atlantis T3 dC18 reverse phase HPLC column (20 mm×2.1 mm) at a flow rate of 0.5 mL/min. The mobile phase consisted of 0.1% formic acid in water (solvent A) and 0.1% formic acid in 100% acetonitrile (solvent B). Elution conditions are detailed below.
(§2) The ion optics of each test compound were optimized for their declustering potential (DP), […] (CE), collision-cell exit potential (CXP) and used in a selected ion monitoring experiment in the positive ion mode. The peak area ratio of each test compound to internal standard was then evaluated for stability. The extent of metabolism was calculated based on the disappearance of the test compound, compared to its initial concentration. The initial rates of clearance of the test compound were calculated using the linear regression plot of semi-log % remaining of the compound versus time. The elimination rate constant (k) of the linear regression plot was then used to determine t1/2 and the intrinsic clearance (CLint) using the following formula, where Chepatocyte (million cells/mL) is the cell density of the incubation:
(§3) The predicted hepatic clearance (CLhep) was calculated using the well stirred method with the following formula with CLint(in vivo) normalized based on liver weight: […]
(§4) The relevant physiological parameters of liver weight, blood flow, and hepatocellularity for various species are listed below: […]

rat hepatocytes = assay: Metabolic stability in rat hepatocytes; assay type: in vitro ADME
Method: as §1, §2, §3, §4

[3] = Metabolic stability in human hepatocytes; assay type: in vitro ADME; settings: cryopreserved hepatocytes; human hepatocytes, 1 μM
Method: as §1, §2, §3, §4

T1 sequence (P43220 24-463): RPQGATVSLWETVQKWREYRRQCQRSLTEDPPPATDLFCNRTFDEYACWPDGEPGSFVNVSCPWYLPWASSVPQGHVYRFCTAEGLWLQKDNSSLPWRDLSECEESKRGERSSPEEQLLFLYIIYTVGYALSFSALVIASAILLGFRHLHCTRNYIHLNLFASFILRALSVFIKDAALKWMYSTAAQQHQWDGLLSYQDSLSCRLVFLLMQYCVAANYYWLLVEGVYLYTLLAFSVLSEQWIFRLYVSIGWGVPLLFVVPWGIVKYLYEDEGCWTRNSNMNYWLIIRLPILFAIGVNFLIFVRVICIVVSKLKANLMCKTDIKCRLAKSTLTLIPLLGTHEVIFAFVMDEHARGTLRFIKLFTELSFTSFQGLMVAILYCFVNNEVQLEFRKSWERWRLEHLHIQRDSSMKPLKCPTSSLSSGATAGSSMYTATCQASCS

Row | EC50 (human GLP-1R receptor) | Cmax ([1]; rat, plasma, po, 3 mg/kg) | PK properties relative to Reference Compound A ([1]; rat) | CLint scaled at 1 μM [2] | half-life at 1 μM [2] | CLint relative to reference standard (rat hepatocytes) | CLint scaled at 1 μM [3] | half-life at 1 μM [3] | AUC(0-t) ([1]; rat, plasma, po, 3 mg/kg) | half-life ([1]; rat, plasma, po, 3 mg/kg) | Half-life relative to reference (rat hepatocytes) | Compound | AUC(0-t) [1] | half-life [1]
1 | 27.8 nM | 299 ± 62.9 ng/mL | similarly improved PK properties | 35.8 ± 1.42 mL/min/kg | 1.55 ± 0.0615 h | significantly lower | 15.3 ± 0.76 mL/min/kg | 2.61 ± 0.13 h | 411 ± 32 ng·h/mL | 1.54 ± 0.46 h | significantly higher | N#Cc1cnc(COc2cccc(C3CCN(Cc4nc5ccc(C(=O)O)cc5n4Cc4cncs4)CC3)n2)c(F)c1 [Compound 29] | – | –
2 | 8.6 nM | 478 ± 186 ng/mL | similarly improved PK properties | 29 ± 0.58 mL/min/kg | 1.91 ± 0.0383 h | significantly lower | 15.6 ± 0.7 mL/min/kg | 2.57 ± 0.117 h | 617 ± 248 ng·h/mL | 1.37 ± 0.18 h | significantly higher | [2H]C([2H])(Oc1cccc(C2CCN(Cc3nc4ccc(C(=O)O)cc4n3Cc3cncs3)CC2)n1)c1ccc(C#N)cc1F [Compound 27] | – | –

Row | Compound | EC50 (human GLP-1R receptor) | Cmax ([1]; rat, plasma, po, 3 mg/kg) | PK properties relative to Reference Compound A ([1]; rat) | CLint scaled at 1 μM [2] | half-life at 1 μM [2] | CLint relative to reference standard (rat hepatocytes) | CLint scaled at 1 μM [3] | half-life at 1 μM [3] | AUC(0-t) ([1]; rat, plasma, po, 3 mg/kg) | half-life ([1]; rat, plasma, po, 3 mg/kg) | Half-life relative to reference (rat hepatocytes) | AUC(0-t) [1] | half-life [1]
3 | N#Cc1ccc(COc2cccc(C34CCN(Cc5nc6ccc(C(=O)O)cc6n5Cc5cncs5)CC3C4)n2)c(F)c1 (centres unmarked) [Compound 14] | 30.1 nM | 581 ± 100 ng/mL | similarly improved PK properties | 92.8 ± 3.3 mL/min/kg | 0.597 ± 0.0212 h | significantly increased | 20.1 ± 0.59 mL/min/kg | 1.99 ± 0.0583 h | – | – | – | 582 ± 45 ng·h/mL | 3.14 ± 1.88 h
